This passage reports IC50 results from ChEMBL document CHEMBL3774313, “Natural product-based design, synthesis and biological evaluation of Albiziabioside A derivatives that selectively induce HCT116 cell death” (Eur J Med Chem, 2016).

A word on the IC50: it is the concentration that gives 50% inhibition.

Type in all cases: functional, cell-based
Assay [1] relates to HeLa. As to the kind of experiment: Antiproliferative activity against human HeLa cells assessed as cell viability after 72 hrs by MTT assay. (In general: Formazan colour is commonly taken as a measure of viable cells.)
Assay [2] has as its system MCF7. The assay can be described thus: Antiproliferative activity against human MCF7 cells assessed as cell viability after 72 hrs by MTT assay. As to conditions: MCF7, 72 h.
Assay [3] deals with HepG2. As to the kind of experiment: Antiproliferative activity against human HepG2 cells assessed as cell viability after 72 hrs by MTT assay. As to conditions: HepG2, 72 h.
Assay [4] has as its system A549. The assay can be described thus: Antiproliferative activity against human A549 cells assessed as cell viability after 72 hrs by MTT assay. As to conditions: A549, 72 h.
Assay [5] can be described thus: Antiproliferative activity against human HCT116 cells assessed as cell viability after 72 hrs by MTT assay. The note with it: HCT-116, 72 h.
Assay [6] in a line: Antiproliferative activity against human HL60 cells assessed as cell viability after 72 hrs by MTT assay. The note with it: HL-60, 72 h.

On to `CC1(C)CC[C@]2(C(=O)O)CC[C@]3(C)C(=CC[C@@H]4[C@@]5(C)CC[C@H](O[C@@H]6O[C@H](CO[C@@H]7OC[C@H](O)[C@H](O)[C@H]7O)[C@@H](O)[C@H](O)[C@H]6NC(=O)/C=C/c6ccc(F)cc6)C(C)(C)[C@@H]5CC[C@]43C)[C@@H]2C1`, for which the IC50 was over 50 µM in assay [1]; over 50 µM in assay [2]; over 50 µM in assay [3]; over 50 µM in assay [4]; 37.5 µM in assay [5]; over 50 µM in assay [6].
Take `COc1cc(/C=C/C(=O)N[C@H]2[C@H](O[C@H]3CC[C@]4(C)[C@H]5CC=C6[C@@H]7CC(C)(C)CC[C@]7(C(=O)O)CC[C@@]6(C)[C@]5(C)CC[C@H]4C3(C)C)O[C@H](CO[C@@H]3OC[C@H](O)[C@H](O)[C@H]3O)[C@@H](O)[C@@H]2O)cc(OC)c1`: the IC50 in assay [1], in assay [2], in assay [3], in assay [4], in assay [5] and in assay [6] was over 50 µM throughout.
`COc1ccccc1/C=C/C(=O)N[C@H]1[C@H](O[C@H]2CC[C@]3(C)[C@H]4CC=C5[C@@H]6CC(C)(C)CC[C@]6(C(=O)O)CC[C@@]5(C)[C@]4(C)CC[C@H]3C2(C)C)O[C@H](CO[C@@H]2OC[C@H](O)[C@H](O)[C@H]2O)[C@@H](O)[C@@H]1O`: the IC50 in assay [1], in assay [2], in assay [3], in assay [4], in assay [5] and in assay [6] was over 50 µM throughout.
As to `Cc1cccc(/C=C/C(=O)N[C@H]2[C@H](O[C@H]3CC[C@]4(C)[C@H]5CC=C6[C@@H]7CC(C)(C)CC[C@]7(C(=O)O)CC[C@@]6(C)[C@]5(C)CC[C@H]4C3(C)C)O[C@H](CO[C@@H]3OC[C@H](O)[C@H](O)[C@H]3O)[C@@H](O)[C@@H]2O)c1`, the IC50 in assay [1], in assay [2], in assay [3], in assay [4], in assay [5] and in assay [6] was over 50 µM in each case.
In the case of `CC(=O)N[C@H]1[C@H](O[C@H]2CC[C@]3(C)[C@H]4CC=C5[C@@H]6CC(C)(C)CC[C@]6(C(=O)O)CC[C@@]5(C)[C@]4(C)CC[C@H]3C2(C)C)O[C@H](CO[C@@H]2OC[C@H](O)[C@H](O)[C@H]2O)[C@@H](O)[C@@H]1O`, the IC50 in assay [1] stood at 5.27 µM; in assay [2], 9.34 µM; in assay [3], 10.3 µM; in assay [4], 5.27 µM; in assay [5], 16 µM; in assay [6], 9.92 µM.
For `CC1(C)CC[C@]2(C(=O)O)CC[C@]3(C)C(=CC[C@@H]4[C@@]5(C)CC[C@H](O[C@@H]6O[C@H](CO[C@@H]7OC[C@H](O)[C@H](O)[C@H]7O)[C@@H](O)[C@H](O)[C@H]6NC(=O)/C=C/c6ccc(Br)cc6)C(C)(C)[C@@H]5CC[C@]43C)[C@@H]2C1`, the IC50 in assay [1] is over 50 µM; in assay [2], over 50 µM; in assay [3], over 50 µM; in assay [4], over 50 µM; in assay [5], 33.2 µM; in assay [6], over 50 µM.
Regarding `COc1ccc(/C=C/C(=O)N[C@H]2[C@H](O[C@H]3CC[C@]4(C)[C@H]5CC=C6[C@@H]7CC(C)(C)CC[C@]7(C(=O)O)CC[C@@]6(C)[C@]5(C)CC[C@H]4C3(C)C)O[C@H](CO[C@@H]3OC[C@H](O)[C@H](O)[C@H]3O)[C@@H](O)[C@@H]2O)cc1OC`, the IC50 in assay [1], in assay [2], in assay [3], in assay [4], in assay [5] and in assay [6] was over 50 µM in each case.
